Experimental data: publication PMC9686339, “Bioassay-guided isolation of Fenghuang Dancong tea constituents with α-glucosidase inhibition activities” (Frontiers in Nutrition, 2022)
Read-outs that look alike come from different tables or passages of the source.

How the values were obtained:
α-glucosidase [1] = target: α-glucosidase; set-up: method as in PMID 28554631; conditions: constituent of Yingde black tea; read-out: IC50 of α-glucosidase inhibition; cited from earlier work
α-glucosidase [2] = test: α-glucosidase inhibition assay (p-NPG substrate); format: biochemical; conditions: pH 6.8, 37°C
Description: This experiment was carried out according to the literature ([11]). Briefly, the test sample was dissolved in solutions (SS) with DMSO as the solvent. p-NPG and α-glucosidase were, respectively mixed with phosphate buffer (PB, 60 mM phosphate, pH 6.8) and used as stock solutions. The concentration of α-glucosidase solution (GS) was 0.5 U/ml and that of p-NPG solution (NS) was 5 mM. In addition, four different solutions (A, B, C and D) were prepared: Solution A contained 112 μl PB, 20 μl GS, and 8 μl SS; Solution B contained 112 μl PB and 20 μl GS; Solution C contained 112 μl PB, 8 μl SS, and 20 μl GS; and Solution D contained 132 μl PB and 8 μl DMSO. After starting each reaction at 37°C, p-nitrophenol was quantified by measuring the absorbance at 405 nm with a UV–vis spectrophotometer. The inhibition rate was calculated according to equation (1):
(1) Inhibition rate (%)= [((Aas − Bas)[…]) / (Aas −Bas)][…],
where Aas, Bas, Cas and Das are the absorbances of solution A, B, C and D, respectively. The sample concentration that inhibited 50% α-glucosidase activity was defined as the IC50value.

HepG2 cells = test: Glucose consumption assay in HepG2 cells; format: cell-based; conditions: 0.18 mg/L, 24 h, medium with 12.0 mM glucose
Description: Here, HepG2 cells were used to evaluate the glucose consumption of the isolated compounds according to a method described in the literature ([12]). Briefly, HepG2 cells were cultured for 24 h. Subsequently, they were transferred from DMEM medium (containing FBS, PEM and SM) to another DMEM medium (containing 12.0 mM glucose). Then, HepG2 cells and the test samples with a concentration of 0.18 mg/L were incubated together for another 24 h. The glucose consumption was obtained by measuring the glucose content of the cell culture supernatant with a glucose kit.

α-glucosidase [3] = test: Enzyme kinetic experiments on α-glucosidase (reversibility, Lineweaver-Burk plots, secondary replot); format: biochemical
Excerpt: The reversibility of enzyme inhibition can be determined according to the influence of sample concentration and enzyme concentration on enzyme activity. […] This implied that 1 was a reversible α-glucosidase inhibitor ([16]). The reversibility of the inhibition of α-glucosidase by different flavonoids has been studied extensively ([17]). However, definitive conclusions cannot been drawn about the relationship between the structure of flavonoids and the reversibility of the inhibition of α-glucosidase ([18]).
The double-reciprocal diagram, based on a Lineweaver–Burk plot, is widely used to investigate inhibitory kinetics of compounds on enzymes. […] Thus, the complex formed by the combination of compound 1 with substrate and α-glucosidase led to the inactivation of the latter. In addition, the number of binding sites between the compound and α-glucosidase can be obtained by a second linear fitting of the concentration of compound 1 and Y-intercept, which is shown in Figure 4D. […] Through further calculation, the binding constant was obtained as 4.58 × 10^4 L/mol. There were obvious differences in the inhibition mechanism of different types of flavonoids on α-glucosidase. […] The above facts indicate that the mechanisms of action of flavonoids on glucosidase are diverse and complex.

[4] = Liposolubility (qualitative observation); format: physicochemical
α-glucosidase [5] = tested on: α-glucosidase; set-up: method as in PMID 30236734; conditions: cited from earlier work

Compound | IC50 (α-glucosidase [2]) | Glucose consumption (HepG2 cells) | Liposolubility [4] | other results
amelliaone A |  |  |  | IC50 (α-glucosidase [1]): 10.2 µM
ameridone E [compound 5] | 81.7 ± 2.72 µM | 9.06 ± 0.15 mmol/L |  | 
COc1ccc([C@H]2CC(=O)c3c(cc(O)c(/C=C(/C)CCC=C(C)C)c3O)O2)cc1O [compound 1, (R, z)-6-(2,6-xylheptane-1,5-dien-1-yl)-5,7-dihydroxy-2-(3-hydroxy-4-methoxyphenyl) chroman-4-one] | 7.51 µM | 10.58 ± 0.18 mmol/L | excellent | Type of α-glucosidase inhibition (α-glucosidase [3]; Lineweaver-Burk plot): non-competitive; Binding constant with α-glucosidase (α-glucosidase [3]; calculated from secondary replot): 45800 L/mol; Reversibility of the inhibition of α-glucosidase (α-glucosidase [3]; enzyme concentration vs enzyme activity at a series of sample dosages): reversible; Number of binding sites with α-glucosidase (α-glucosidase [3]; secondary replot of Y-intercept vs concentration): one; melting point: 165 °C
ameridone D [compound 4] | 76.5 ± 3.52 µM | 8.30 ± 0.33 mmol/L |  | 
O=c1c(O)c(-c2ccccc2)oc2cc(O)cc(O)c12 [galangin] |  |  |  | Number of binding sites with α-glucosidase (α-glucosidase [5]): one; Type of α-glucosidase inhibition (α-glucosidase [5]): mixed inhibition of competitive inhibition and non-competitive inhibition
COc1ccc([C@H]2CC(=O)c3c(cc(O)c(/C=C(\C)CCC=C(C)C)c3O)O2)cc1O [compound 2, (R,E)-6-(2,6-dimethylhepta−1,5-dien-1-yl)-5,7-dihydroxy-2-(3-hydroxy-4-methoxyphenyl) chroman-4-one] | 33.2 ± 2.21 µM | 9.40 ± 0.12 mmol/L | almost the same | 
CC1=CC[C@H](C)C(c2c(O)cc3occ(-c4ccc(O)cc4)c(=O)c3c2O)=CC1 [compound 3, (S)-6-(4,7-dimethylcyclohepta-1,4-dien-1-yl)-5,7-dihydroxy-3-(4-hydroxyphenyl)−4H-chromen-4-one] | 56.4 ± 2.11 µM | 8.98 ± 0.39 mmol/L | slightly inferior to the others | 
